Measurements from PMC5652740, “Inhibition of HIV-1 infection in humanized mice and metabolic stability of protein phosphatase-1-targeting small molecule 1E7-03” (Oncotarget, 2017).
Where two headings read alike, the source gives them in different places.

Assays:
HIV-1 89.6 = experiment: Antiviral efficacy in HIV-1 89.6-infected humanized NSG mice; assay type: in vivo; details: 48 hrs
Method: NOD.Cg-Prkdcscid Il2rgtm1Wjl/SzJ (NSG) mice initially purchased from Jackson Laboratories were bred and maintained in the Animal Core Facility at George Mason University (Manassas, VA). NSG mice were generated by i.p. injection of cryopreserved human CD34+ hematopoietic stem progenitor cells (HSPC) (500,000 cells per mouse) isolated from the autologous fetal liver. Anesthetized mice were inoculated by direct injection 16 weeks after implantation with 50 μl of HIV-1 89.6 (1,000 TCID50) or RPMI 1640 medium (mock infection). […] Blood was collected by tail vein after 48 hrs and transferred into microcentrifuge tubes containing 330 mM EDTA. Each data point represents the blood from a single animal. Plasma was removed after low-speed centrifugation for 5 min at room temperature and stored at -80°C. Viral RNA was extracted from plasma using the QIAamp Viral RNA Mini Kit (Qiagen). For quantitative analysis of HIV-1 RNA, total RNA was isolated from blood specimens of HIV-1-infected humanized mice. RNA was isolated using Trizol Reagent (Invitrogen, Carlsbad, CA) according to the manufacturer's protocol. A total of 1.0 μg of RNA was treated with 0.25 mg/ml DNase I RNase-free (Roche, Mannheim, Germany) for 60 min in the presence of 5 mM MgCl2, followed by heat inactivation at 65 °C for 15 min. A 200–250 ng aliquot of total RNA was used to generate cDNA with the GoScript Reverse Transcription System (Promega, Madison, WI) using TAR-specific reverse primer TAR+59R: 5′- […] -3′. Subsequent quantitative real-time PCR analysis was performed with 2 μl of undiluted RT reaction mixes. The iQ Supermix (Bio-Rad, Hercules, CA) was used with the primers specific for (1) HIV-1 TAR: TARfll-F: 5′-[…]-3′ and TAR+59R as above; (2) HIV-1 TAR-gag: Gag 1625R: 5’- […] -3’ and TAR+59R as above. Real-time PCR reactions were carried out in triplicate.

HIV-1-LUC-G = experiment: Single round HIV-1 replication, luciferase readout in CEM T cells; assay type: cell-based; details: Human immunodeficiency virus 1, T-cell
Method: CEM T cells were infected with VSVG-pseudotyped pNL4-3.Luc.R-E-virus (HIV-1-LUC-G) prepared as previously described and cultured in 96-well white plates ( 1.25 × 10^6 cells/ml, 100 μl/well) at 37°C and 5% CO2. The cells were treated with serial dilutions of the compounds or vehicle (DMSO) and incubated overnight. At 24 hrs post infection, 100 μl of reconstituted luciferase buffer (Luclite Kit, Perkin Elmer) was added to each well, incubated for 10 min and luminescence was measured using Glo-Max Microplate Multimode reader (Promega).

HIV-1 env and gag mRNA = HIV-1 env and gag mRNA expression by real-time RT-PCR in infected CEM T cells; assay type: cell-based; details: 10 μM 1E7-03, DP1, DP3; 5 μM AZT, 3TC; in words
Method: For quantitative analysis of HIV-1 RNA, CEM T cells were infected with HIV-1-LUC-G virus. Cells were treated with 10 μM 1E7-03, 10 μM DP1, 10 μM DP3, 5 μM AZT or 5 μM 3TC and control cells were untreated or treated with DMSO. Total RNA was isolated using Trizol Reagent (Invitrogen, Carlsbad, CA) according to the manufacturer's protocol. Total RNA (100 ng) was reverse transcribed to cDNA using Superscript™ RT-PCR kit (Invitrogen, Carlsbad, CA). Hexamers and oligo-dT were used as primers. For real-time PCR analysis, cDNA was amplified using Roche LightCycler 480 (Roche Diagnostics) and SYBR Green1 Master mix (Roche Diagnostics). PCR was run for 45 cycles and each cycle included denaturation at 95°C for 10 seconds, annealing at 60°C for 10 seconds, and extension at 72°C for 10 seconds. Quantification of env and gag was carried using 18S RNA as a normalization standard. Quantification of housekeeping genes, β-actin and RSP13 was carried relative to 18S RNA. Mean Cp values were determined and ΔΔCt method was used to calculate relative expression levels. Unpaired t-test was used to test statistical significance.
The following primer sequences were used: env, forward - […], reverse-[…]; gag, forward- […], reverse- […]; β-actin, forward- […], reverse-[…]; RSP13, forward- […], reverse- […]; and 18SrRNA, forward- […], reverse- […].

CEM T cells = experiment: Cell viability, trypan blue-based assay; details: 24 h; for effect on cell viability: up to 180 μM, in words
Method: CEM T cells were cultured in 96-well plates at 37°C and incubated with the indicated compound concentrations for 24 hrs. Cell viability was determined using trypan blue-based assay.

[1] = Stability in human liver microsomes; assay type: in vitro ADME; details: 1 hr; for % of Total (Liver microsomes, Human): 10 μM 1E7-03, 37°C, 1E7-03 remaining and DP1, DP3 formed
Method: The metabolic stability of 1E7-03 was also investigated using a pool of human and mouse liver microsomes (HMS9PL, MSS9PL, Thermo Scientific) following manufacturer's instructions. In brief, incubations were conducted at 37 ± 1°C in mixtures containing 5 μl of human or mouse liver microsomes (20 mg/ml), 183 μl of potassium phosphate buffer (pH 7.4, 100 mM) and 2 μl of 1E7-03 (10 mM sock solution of 1E7-03 in DMSO was diluted into 1 mM by PBS). The mixture was pre-incubated for 5 min, then initiated the reactions with the addition of 10 μl 20 mM NADPH (Sigma Aldrich). The reactions were terminated after 1 hr incubation by adding 800 μl cold acetone. The mixture was kept at 4°C for 30 min, and the precipitated protein was removed by centrifugation (13, 000 g for 10 min at 4°C). A 250 μl aliquot of supernatant was transferred to a clean test tube and evaporated to dryness using a SpeedVac concentrator. The residue was reconstituted in 50 μl of acetonitrile with 0.1% FA for LC/FT-MS analysis.

[2] = read-out: One round HIV-1 infection IC50, CEM T cells, HIV-1-LUC-G, Figure 7D
[3] = read-out: One round HIV-1 infection IC50, CEM T cells, HIV-1-LUC-G, Figure 4A

COc1ccc(/C=C2\CCCc3c2nc2ccccc2c3C(=O)OC(C)C(=O)OC(C)(C)C)cc1OC (stereo not drawn) [DP1-07]
fold reduction of HIV TAR RNA (HIV-1 89.6; single i.p. dose 3 mg/kg, Figure 7G): 3.8 fold
IC50 (HIV-1-LUC-G; [2]): > 66 µM

COc1ccc(/C=C2\CCc3c2nc2ccccc2c3C(=O)O)cc1OC [DP3]
HIV-1 env mRNA expression (HIV-1 env and gag mRNA): not affected
HIV-1 gag mRNA expression (HIV-1 env and gag mRNA): not affected
effect on cell viability (CEM T cells): no effect
IC50 (HIV-1-LUC-G; [3]): > 180 µM
% of Total (Liver microsomes, Human) [1]: 1.27%

COc1ccc(/C=C2\CCc3c2nc2ccccc2c3C(=O)OC(C)C(=O)O)cc1OC (stereo not drawn) [DP1]
HIV-1 env mRNA expression (HIV-1 env and gag mRNA): not affected
HIV-1 gag mRNA expression (HIV-1 env and gag mRNA): not affected
effect on cell viability (CEM T cells): no effect
IC50 (HIV-1-LUC-G; [3]): 17 µM
% of Total (Liver microsomes, Human) [1]: 39.34%

CCNC(=O)NC(=O)C(C)OC(=O)c1c2c(nc3ccccc13)/C(=C/c1ccc(OC)c(OC)c1)CC2 (stereo not drawn) [1E7-03]
fold reduction of HIV TAR RNA (HIV-1 89.6; single i.p. dose, 1E7-03 3 mg/kg, F07#13 […], vs untreated mice, Figure 6A): > 40 fold
fold reduction of HIV TAR-gag RNA (HIV-1 89.6; single i.p. dose, 1E7-03 3 mg/kg, F07#13 […], vs untreated mice, Figure 6B): > 39 fold
HIV-1 env mRNA expression (HIV-1 env and gag mRNA): significantly reduced
HIV-1 gag mRNA expression (HIV-1 env and gag mRNA): significantly reduced
viability reduction (CEM T cells; highest tested 180 μM): about 30%
IC50 (HIV-1-LUC-G; [3]): 1.7 µM
IC50 (HIV-1-LUC-G; [2]): 2 µM
% of Total (Liver microsomes, Human) [1]: 59.39%
% of 1E7-03 degraded and converted into DP1 ([1]; human liver microsomes): 39%
